The NIST ThermoML archive (doi:10.1016/j.jct.2003.08.017)

Columns and labels:
[1] = Molar enthalpy of transition or fusion; details: Crystal
[2] = molar heat capacity at constant pressure; details: 101.33 kPa, Small (less than 1 g) adiabatic calorimetry
[3] = Crystal

OCC1c2ccccc2-c2ccccc21 [9-fluorenemethanol]
Details	Molar enthalpy of transition or fusion [kcal/mol]	Triple point temperature [K]
[1]	6.279	–
[3]	–	376.57

[2]
Details	molar heat capacity at constant pressure [J/K/mol]
78.5 K, Crystal	74.59
79.9 K, Crystal	75.63
82.26 K, Crystal	77.22
84.64 K, Crystal	78.94
85.94 K, Crystal	79.76
87.24 K, Crystal	80.69
88.54 K, Crystal	81.69
89.84 K, Crystal	82.71
91.05 K, Crystal	83.42
92.27 K, Crystal	84.33
93.81 K, Crystal	85.44
95.68 K, Crystal	86.83
97.47 K, Crystal	88.34
99.25 K, Crystal	89.58
101.04 K, Crystal	90.8
102.74 K, Crystal	92
104.45 K, Crystal	93.28
106.15 K, Crystal	94.37
107.78 K, Crystal	95.55
110.05 K, Crystal	97.38
112.81 K, Crystal	99.34
115.57 K, Crystal	101.09
118.25 K, Crystal	103.07
120.84 K, Crystal	105.05
123.44 K, Crystal	107.15
126.04 K, Crystal	109.39
128.55 K, Crystal	111.1
131.07 K, Crystal	112.95
133.5 K, Crystal	114.39
135.94 K, Crystal	116.5
138.38 K, Crystal	118.22
140.73 K, Crystal	120.24
143.08 K, Crystal	121.92
145.44 K, Crystal	123.49
147.79 K, Crystal	125.56
150.06 K, Crystal	127.26
152.34 K, Crystal	129.25
154.61 K, Crystal	130.86
156.8 K, Crystal	132.44
158.99 K, Crystal	134.22
161.18 K, Crystal	136.08
163.38 K, Crystal	137.61
165.57 K, Crystal	139.23
167.68 K, Crystal	141.01
169.87 K, Crystal	142.68
171.98 K, Crystal	144.26
174.09 K, Crystal	145.97
176.12 K, Crystal	147.81
178.23 K, Crystal	149.54
180.26 K, Crystal	151.27
182.29 K, Crystal	153.26
184.32 K, Crystal	155.07
186.35 K, Crystal	156.65
188.38 K, Crystal	158.43
190.32 K, Crystal	160.03
192.27 K, Crystal	161.75
194.22 K, Crystal	163.44
196.17 K, Crystal	165.02
198.12 K, Crystal	167.02
200.06 K, Crystal	168.41
201.93 K, Crystal	170.12
203.88 K, Crystal	172.09
205.75 K, Crystal	173.99
207.69 K, Crystal	175.77
209.56 K, Crystal	177.8
211.43 K, Crystal	179.56
213.21 K, Crystal	181.31
215.08 K, Crystal	183.23
216.95 K, Crystal	185.04
218.73 K, Crystal	186.49
220.52 K, Crystal	188.39
222.38 K, Crystal	190.43
224.17 K, Crystal	192.38
225.96 K, Crystal	194.23
227.66 K, Crystal	195.8
229.45 K, Crystal	197.65
231.15 K, Crystal	199.09
232.86 K, Crystal	201.07
234.64 K, Crystal	202.79
236.35 K, Crystal	203.84
238.05 K, Crystal	205.56
239.75 K, Crystal	207.12
241.46 K, Crystal	208.72
243.08 K, Crystal	210.03
244.71 K, Crystal	211.22
246.41 K, Crystal	212.28
248.12 K, Crystal	213.72
249.74 K, Crystal	215.05
251.36 K, Crystal	216.5
253.07 K, Crystal	218.21
254.69 K, Crystal	219.66
256.31 K, Crystal	220.83
257.94 K, Crystal	221.75
259.56 K, Crystal	223.22
261.18 K, Crystal	224.27
262.73 K, Crystal	225.73
264.35 K, Crystal	226.9
265.97 K, Crystal	228.35
267.6 K, Crystal	229.68
269.14 K, Crystal	231.11
270.68 K, Crystal	232.43
272.14 K, Crystal	233.76
273.68 K, Crystal	235.07
276.77 K, Crystal	237.44
280.83 K, Crystal	240.46
284.15 K, Crystal	243.34
287.89 K, Crystal	246.4
291.22 K, Crystal	248.63
294.46 K, Crystal	252.05
297.55 K, Crystal	255.07
300.71 K, Crystal	258.24
303.8 K, Crystal	261.53
306.96 K, Crystal	265.22
310.05 K, Crystal	268.37
313.05 K, Crystal	272.08
316.13 K, Crystal	275.5
319.22 K, Crystal	279.32
322.22 K, Crystal	283
325.23 K, Crystal	287.49
328.23 K, Crystal	292.62
331.15 K, Crystal	297.89
334.07 K, Crystal	303.26
337 K, Crystal	308.39
339.84 K, Crystal	314.22
342.68 K, Crystal	320.06
345.44 K, Crystal	326.47
348.03 K, Crystal	332.27
350.71 K, Crystal	338.6
353.31 K, Crystal	344.72
355.99 K, Crystal	351.11
358.59 K, Crystal	357.3
360.94 K, Crystal	363.05
378.41 K, Liquid	50.2
379.63 K, Liquid	50.76
381.41 K, Liquid	51.75
383.59 K, Liquid	52.7
385.71 K, Liquid	53.72
387.58 K, Liquid	54.67
389.69 K, Liquid	55.38
